The values below come from patent US20230348473A1, “SUBSTITUTED PYRIDINES AS PARP1 INHIBITORS” (Xinthera, Inc., priority 2022, published 2023).

What is called IC50 is the concentration that inhibits the measured activity by half. High values mean weaker potency in that assay, low ones greater potency in that assay.

In one assay the target is PARP1 (Homo sapiens (Human), UniProt P09874). In words: Biochemical fluorescence polarization (FP) assay, PARPi-FL displacement, PARP1. It counts as binding. Conditions: 20 nM protein, 3 nM PARPi-FL, 4 h. How it is done: (§1) To characterize our compounds, we utilized an assay measuring the displacement of a commercially available fluorescently labeled PARP 1/2 inhibitor (PARPi-FL, Tocris Biosciences, #6461) as exemplified in assays performed in WO2014/064149 and WO2021/013735A1. The assay was performed utilizing the following method: Compounds were dissolved in DMSO an Echo550 liquid handler was utilized to make serial dilations in the desired concentration range in Optiplate-384F plates. 100% DMSO was used for the high (with protein) and low (without protein) control samples. 20 nL of compound or DMSO alone was added to individual assay plate wells. […] The PARPi-FL was then added at a final concentration of 3 nM. The assay plate is centrifuged at 1000 rpm for 1 min and incubated for 4 h at room temperature. […] XLFit (equation 201) is used to calculate a reported IC50 for each compound.

A further assay has as its target PARP2 (Homo sapiens (Human), UniProt Q9UGN5). Nature of the assay: Biochemical fluorescence polarization (FP) assay, PARPi-FL displacement, PARP2. The format is binding. Conditions: 20 nM protein, 3 nM PARPi-FL, 4 h. How it is done:
as §1
A general note: In fluorescence polarisation assays a small probe gives low polarisation when free and higher when bound to something large.

Chain of PARP1 (P09874 whole entry): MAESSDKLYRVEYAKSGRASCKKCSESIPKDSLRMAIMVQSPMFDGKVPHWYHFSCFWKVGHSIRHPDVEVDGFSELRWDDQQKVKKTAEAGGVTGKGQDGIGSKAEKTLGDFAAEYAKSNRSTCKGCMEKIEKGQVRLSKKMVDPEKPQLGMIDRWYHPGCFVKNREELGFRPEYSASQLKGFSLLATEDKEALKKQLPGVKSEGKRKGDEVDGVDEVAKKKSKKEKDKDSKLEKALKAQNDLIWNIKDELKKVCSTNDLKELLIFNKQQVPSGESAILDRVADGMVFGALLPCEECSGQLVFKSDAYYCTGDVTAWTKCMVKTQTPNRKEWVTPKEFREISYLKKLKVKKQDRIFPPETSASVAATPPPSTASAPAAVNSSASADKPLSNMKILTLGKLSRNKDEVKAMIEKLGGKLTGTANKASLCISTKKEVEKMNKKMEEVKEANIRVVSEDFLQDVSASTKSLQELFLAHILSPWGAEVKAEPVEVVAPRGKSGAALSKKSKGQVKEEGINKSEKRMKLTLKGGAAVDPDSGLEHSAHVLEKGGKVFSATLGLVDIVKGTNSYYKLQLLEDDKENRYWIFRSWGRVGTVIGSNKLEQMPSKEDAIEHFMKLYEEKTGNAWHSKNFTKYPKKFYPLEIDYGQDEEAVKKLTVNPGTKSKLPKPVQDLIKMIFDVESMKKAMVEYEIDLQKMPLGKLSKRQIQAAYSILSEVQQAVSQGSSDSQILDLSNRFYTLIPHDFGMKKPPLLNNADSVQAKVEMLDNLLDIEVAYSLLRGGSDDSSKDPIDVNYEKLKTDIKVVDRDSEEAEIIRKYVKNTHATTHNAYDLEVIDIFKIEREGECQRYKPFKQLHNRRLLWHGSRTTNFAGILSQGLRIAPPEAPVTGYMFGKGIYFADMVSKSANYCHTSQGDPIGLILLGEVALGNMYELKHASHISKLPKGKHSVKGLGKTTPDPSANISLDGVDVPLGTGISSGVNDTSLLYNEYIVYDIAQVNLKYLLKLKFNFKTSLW
Chain of PARP2 (Q9UGN5 whole entry): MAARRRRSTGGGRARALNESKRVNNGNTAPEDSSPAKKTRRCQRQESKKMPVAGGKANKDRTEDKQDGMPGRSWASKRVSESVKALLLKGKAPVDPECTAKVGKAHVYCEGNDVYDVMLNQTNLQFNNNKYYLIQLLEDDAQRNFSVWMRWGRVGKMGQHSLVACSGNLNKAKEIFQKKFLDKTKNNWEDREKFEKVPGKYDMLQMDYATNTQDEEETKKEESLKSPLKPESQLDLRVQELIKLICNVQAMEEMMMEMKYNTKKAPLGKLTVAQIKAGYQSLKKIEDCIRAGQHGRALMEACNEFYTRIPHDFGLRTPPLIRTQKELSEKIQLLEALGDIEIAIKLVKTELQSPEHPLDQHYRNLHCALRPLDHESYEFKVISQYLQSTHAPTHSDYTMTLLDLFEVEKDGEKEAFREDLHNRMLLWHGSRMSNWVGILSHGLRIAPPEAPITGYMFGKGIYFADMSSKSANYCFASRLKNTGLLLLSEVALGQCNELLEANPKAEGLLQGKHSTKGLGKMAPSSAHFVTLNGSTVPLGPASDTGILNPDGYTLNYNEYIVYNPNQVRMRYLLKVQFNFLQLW

For `O=C(NC1CC1)c1ccc(N2CCN(Cc3ccc4c([nH]c(=O)c5ccnn54)c3F)CC2)c(F)n1` [Example 3], the IC50 at PARP1 is 22 nM; on PARP2, more than 100000 nM.
For `Cc1cc2c(=O)[nH]c3c(F)c(CN4CCN(c5ccc(C(=O)NC6CC6)nc5F)CC4)ccc3n2n1` [Example 4], in that order: 16 nM and more than 100000 nM.
For `CNC(=O)c1ccc(N2CCN(Cc3ccc4c([nH]c(=O)c5cc(C)nn54)c3F)CC2)c(F)n1` [Example 5], in that order: 41 nM and more than 100000 nM.
The like results for `CNC(=O)c1ccc(N2CCN(Cc3ccc4c([nH]c(=O)c5ccoc54)c3F)CC2)c(F)n1` [Example 6, 6-fluoro-5-[4-({6-fluoro-4-oxo-5H-furo[3,2-c]quinolin-7-yl}methyl)piperazin-1-yl]-N-methylpyridine-2-carboxamide] were, in that order, 21 nM and more than 100000 nM.
Turning to `CNC(=O)c1ccc(N2CCN(Cc3ccc4c([nH]c(=O)n5cccc45)c3F)CC2)c(F)n1` [Example 7, 6-fluoro-5-[4-({7-fluoro-5-oxo-6H-pyrrolo[1,2-c]quinazolin-8-yl}methyl)piperazin-1-yl]-N-methylpyridine-2-carboxamide], the 50% inhibitory concentration (IC50) at PARP1 was 18 nM; at PARP2, more than 100000 nM.
Regarding `O=C(NCC(F)F)c1ccc(N2CCN(Cc3ccc4c([nH]c(=O)c5ccoc54)c3F)CC2)c(F)n1` [Example 11], the IC50 was 14 nM at PARP1 and more than 100000 nM on PARP2.
For `Cc1cc2c(=O)[nH]c3c(F)c(CN4CCN(c5ccc(C(=O)NCC(F)F)nc5F)CC4)ccc3n2n1` [Example 13], in that order: 25 nM and more than 100000 nM.
For `O=C(NC1CC1)c1ccc(N2CCN(Cc3ccc4c([nH]c(=O)c5ccoc54)c3F)CC2)c(F)n1` [Example 14], in that order: 10 nM and more than 100000 nM.
The like results for `O=C(NCC(F)F)c1ccc(N2CCN(Cc3ccc4c5c(c(=O)[nH]c4c3F)CCO5)CC2)c(F)n1` [Example 15] were, in that order, 12 nM and more than 100000 nM.
For the molecule `COCCNC(=O)c1ccc(N2CCN(Cc3ccc4c([nH]c(=O)c5cc(C)nn54)c3F)CC2)c(F)n1` [Example 17], the concentration for half-maximal inhibition (IC50) at PARP1 is 14 nM; on PARP2 it was more than 100000 nM.
For `CNC(=O)c1ccc(N2CCN(Cc3ccc4c([nH]c(=O)c5cnn(C)c54)c3F)CC2)c(F)n1` [Example 19, 6-fluoro-5-[4-({6-fluoro-1-methyl-4-oxo-5H-pyrazolo[4,3-c]quinolin-7-yl}methyl)piperazin-1-yl]-N-methylpyridine-2-carboxamide], in that order: 100 nM and more than 100000 nM.
The like results for `CNC(=O)c1ccc(N2CCN(Cc3ccc4c([nH]c(=O)c5cn(C)nc54)c3F)CC2)c(F)n1` [Example 20, 6-fluoro-5-[4-({6-fluoro-2-methyl-4-oxo-5H-pyrazolo[4,3-c]quinolin-7-yl}methyl)piperazin-1-yl]-N-methylpyridine-2-carboxamide] were, in that order, 11 nM and more than 100000 nM.
Regarding `CNC(=O)c1ccc(N2CCN(Cc3ccc4c([nH]c(=O)c5c(C)cnn54)c3F)CC2)c(F)n1` [Example 23], the IC50 at PARP1 is 26 nM; on PARP2 it was more than 100000 nM.
For `CNC(=O)c1ccc(N2CCN(Cc3ccc4c5c(c(=O)[nH]c4c3F)CCO5)CC2)cn1` [Example 26], in that order: 13 nM and more than 100000 nM.
For `CNC(=O)c1ccc(N2CCN(Cc3ccc4c([nH]c(=O)c5c(F)cnn54)c3F)CC2)c(F)n1` [Example 28, 5-[4-({3,6-difluoro-4-oxo-5H-pyrazolo[1,5-a]quinoxalin-7-yl}methyl)piperazin-1-yl]-6-fluoro-N-methylpyridine-2-carboxamide], in that order: 10 nM and more than 100000 nM.
